The data set is described as follows: thermal stability: thermal decomposition temperature by thermogravimetry and differential thermal analysis. It is filed as physicochemical. The procedure: For the absorption characteristic, absorption spectra were measured by using a near infrared photospectrometer. Further, for the thermal stability, the thermal decomposition temperature was measured by thermogravimetry and differential thermal analysis. Further, the solubility in organic solvents such as chloroform or acetone was confirmed.

On to `CC(C)CN(CC(C)C)c1cc(O)c2c(c1)OC(=O)/C2=C(/[O-])C1=C2C(O)=CC(=[N+](CC(C)C)CC(C)C)C=C2OC1=O` [compound (1)], for which the decomposition temperature stood at 202.7 °C.

For the origin of these results see US6868215B2, “Dye thin film, production method thereof, optical switch, optical distributor, optical modulator and optical switch array” (Fuji Xerox Co., Ltd., priority 2002, dated 2005).
